Laboratory results taken from patent publication US7807828B2, “Olanzapine analogs and methods of use thereof” (Hypnion, Inc., priority 2005, dated 2010).
“And” between values parts separate entries of the source, which are not always exact repeats. Equal values may be shown once.

Key:
[1] = biological target: T1, Alpha 1B (h) (Homo sapiens, UniProt P35368); test: Alpha 1B (h) binding assay; settings: Table 7A; unit inferred
T1 sequence (P35368 1-520): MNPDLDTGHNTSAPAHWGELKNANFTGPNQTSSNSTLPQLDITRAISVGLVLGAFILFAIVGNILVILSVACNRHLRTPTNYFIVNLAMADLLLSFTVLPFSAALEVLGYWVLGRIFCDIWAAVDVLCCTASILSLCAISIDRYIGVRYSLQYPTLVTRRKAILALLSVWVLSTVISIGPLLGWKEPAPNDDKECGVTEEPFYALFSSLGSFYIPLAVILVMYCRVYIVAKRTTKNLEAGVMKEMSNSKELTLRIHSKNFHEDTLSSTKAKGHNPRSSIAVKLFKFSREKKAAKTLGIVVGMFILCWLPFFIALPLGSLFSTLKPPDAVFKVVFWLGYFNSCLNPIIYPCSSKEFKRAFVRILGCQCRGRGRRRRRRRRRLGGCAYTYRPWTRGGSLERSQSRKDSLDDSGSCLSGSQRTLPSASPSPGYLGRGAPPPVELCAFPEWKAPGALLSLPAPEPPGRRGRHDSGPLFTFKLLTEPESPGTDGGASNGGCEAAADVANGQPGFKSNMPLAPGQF
Procedure: (§1) Binding assays were performed using various sleep-inducing agents and derivatives selected from those listed in Table 1 in competitive binding assays with known standards for the H1 histamine receptor, and the M1, M2, and M3 muscarinic receptors, alpha 1 and alpha 2 receptors, D1 and D2 receptors, 5HT2a, 5HT2b, 5HT2c, 5HT2c, and 5HT7 receptors.

[2] = system: adult, male Wistar rats; test: Sleep-wakefulness monitoring (SCORE-2000, EEG/EMG) in rats; format: in vivo, rat; settings: minutes; for LONGEST UNINTERRUPTED SLEEP BOUT 10 mg/kg / NREM CUMULATION 10 mg/kg: oral bolus at CT-18, 10 mg/kg
Procedure: Sleep-wakefulness, locomotor activity and body temperature are monitored in male Wistar rats treated with a test compound (i.e., olanzapine analog) initially at a concentration of 10 mg/kg. Higher and lower doses are assayed for select compounds (e.g., as high as 45 mg/kg, and as low as necessary to establish a no-effect dose). Treatments are administered at CT-18, the peak of the activity dominated period (6 hours after lights-off), and produced soporific (sleep-inducing) effects characterized by increased non-REM sleep time, increased sleep continuity, but without evidence of REM sleep inhibition or rebound insomnia.
Sleep-wakefulness, locomotor activity and body temperature were monitored in vivo with various compounds of the invention. Adult, male Wistar rats (250 g at time of surgery, Charles River Laboratories, Wilmington Mass.) were anesthetized (2% isoflourane in medical grade oxygen) and surgically prepared with a cranial implant to permit chronic electro-encephalogram (EEG) and electromyogram (EMG) recording. Body temperature and locomotor activity were monitored via a miniature transmitter (Mini-Mitter, Bend, Oreg.) surgically placed in the abdomen. The cranial implant consisted of stainless steel screws (two frontal (+3.2 AP from bregma, ±2.0 ML) and two occipital (−6.9 AP, ±5.5 ML)) for EEG recording. Two Teflon®-coated stainless steel wires were positioned under the nuchal trapezoid muscles for EMG recording. All leads were soldered to a miniature connector prior to surgery, and gas sterilized in ethylene oxide. The implant assembly was affixed to the skull with dental acrylic. A minimum of three weeks was allowed for surgical recovery.
Each rat was permanently housed in its own individual recording cage located within separate, ventilated compartments of custom-designed stainless steel cabinets. Each cage was enhanced with a filter-top riser and low-torque swivel-commutator. Food and water were available ad libitum. A 24-hr light-dark cycle (12 hours light, 12 hours dark) was maintained throughout the study. Animals were undisturbed for at least 48 hours before and after treatments.
Sleep and wakefulness were determined using “SCORE-2000™” (Hypnion, Worcester, Mass.)—an internet-based sleep-wake and physiological monitoring system. The system monitored amplified EEG (bandpass 1-30 Hz), integrated EMG (bandpass 10-100 Hz), body temperature and non-specific locomotor activity (LMA) via telemetry, and drinking activity, continuously and simultaneously. Arousal states were classified on-line as non-REM (NREM) sleep, REM sleep, wake, or theta-dominated wake every 10 seconds. Total drinking and locomotor activity counts, and body temperature were quantitiated and recorded each minute, using EEG feature extraction and pattern-matching algorithms. […] The classification algorithm used individually-taught EEG-arousal-state templates, plus EMG criteria to differentiate REM sleep from theta-dominated wakefulness, plus behavior-dependent contextual rules (e.g., if the animal was drinking, it is awake). Drinking and locomotor activity intensity (LMA) were recorded every 10 seconds, while body temperature was recorded each minute. Locomotor activity was detected by a telemetry receiver (Mini-Mitter) beneath the cage. Telemetry measures (LMA and body temperature) were not part of the scoring algorithm; thus, sleep-scoring and telemetry data were independent measures.
Compounds were administered at CT-18, the peak of the activity-dominated period, sufficient time was allowed to view the time course of the treatment effect before lights-on (6 hours post-treatment). Compounds were suspended in sterile 0.25% or 0.5% methylcellulose (1-2 ml/kg). Treatments were administered orally as a bolus.
A parallel group study design was employed. […]

[3] = biological target: D2 (h) (Homo sapiens, UniProt P14416); test: Dopamine D2 binding assay; settings: Table 7A; unit inferred
D2 (h), sequence (P14416 whole entry): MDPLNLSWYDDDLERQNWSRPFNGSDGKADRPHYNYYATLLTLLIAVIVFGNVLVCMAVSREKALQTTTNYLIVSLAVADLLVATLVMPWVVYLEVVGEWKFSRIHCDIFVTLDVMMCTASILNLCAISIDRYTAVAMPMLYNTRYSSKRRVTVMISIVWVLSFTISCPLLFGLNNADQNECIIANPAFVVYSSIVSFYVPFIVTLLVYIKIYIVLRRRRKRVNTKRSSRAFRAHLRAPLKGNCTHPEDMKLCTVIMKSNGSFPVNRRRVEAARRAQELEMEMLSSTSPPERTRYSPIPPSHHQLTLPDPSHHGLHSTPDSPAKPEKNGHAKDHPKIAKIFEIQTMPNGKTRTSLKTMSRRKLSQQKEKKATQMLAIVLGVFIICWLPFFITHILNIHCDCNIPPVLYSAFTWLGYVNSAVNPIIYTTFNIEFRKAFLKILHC

[4] = biological target: 5HT2a (rat) (Rattus norvegicus, UniProt P14842); test: 5HT2a (rat) binding assay; settings: Table 7A; unit inferred
5HT2a (rat), sequence (P14842 whole entry): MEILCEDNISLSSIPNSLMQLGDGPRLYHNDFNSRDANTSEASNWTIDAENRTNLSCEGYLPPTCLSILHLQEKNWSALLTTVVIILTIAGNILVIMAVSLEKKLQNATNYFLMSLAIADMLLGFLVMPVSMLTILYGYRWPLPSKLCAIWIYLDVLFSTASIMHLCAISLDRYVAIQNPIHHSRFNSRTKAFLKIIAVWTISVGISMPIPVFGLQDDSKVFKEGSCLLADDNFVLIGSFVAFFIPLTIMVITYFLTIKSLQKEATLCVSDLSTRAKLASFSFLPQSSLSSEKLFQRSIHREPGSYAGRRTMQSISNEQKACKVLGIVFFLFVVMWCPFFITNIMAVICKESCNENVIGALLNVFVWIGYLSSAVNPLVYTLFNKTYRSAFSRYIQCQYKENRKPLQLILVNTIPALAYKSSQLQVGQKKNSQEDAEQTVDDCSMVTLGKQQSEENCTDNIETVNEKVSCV

[5] = biological target: 5HT2a (h R) (Homo sapiens, UniProt P28223); test: 5HT2a (h R) binding assay; settings: Table 7B; unit inferred
5HT2a (h R), sequence (P28223 whole entry): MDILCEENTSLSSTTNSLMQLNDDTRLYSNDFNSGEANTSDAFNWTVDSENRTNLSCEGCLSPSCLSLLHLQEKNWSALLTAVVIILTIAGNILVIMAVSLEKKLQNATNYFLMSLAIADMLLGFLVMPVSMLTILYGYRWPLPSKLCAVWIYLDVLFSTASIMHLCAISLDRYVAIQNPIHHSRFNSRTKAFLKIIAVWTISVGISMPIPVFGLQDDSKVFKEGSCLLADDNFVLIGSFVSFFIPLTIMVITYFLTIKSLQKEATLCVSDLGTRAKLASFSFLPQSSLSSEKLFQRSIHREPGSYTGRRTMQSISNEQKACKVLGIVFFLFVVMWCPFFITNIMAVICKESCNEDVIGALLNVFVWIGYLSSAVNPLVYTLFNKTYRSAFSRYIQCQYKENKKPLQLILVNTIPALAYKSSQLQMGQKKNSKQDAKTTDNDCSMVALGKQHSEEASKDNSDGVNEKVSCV
Procedure: as §1
In vitro binding assays are used to determine 5HT2a binding. These binding assays measure the ability of benzisoxazole analogs to displace known standards from the 5HT2a, 5HT2b, 5HT2c, and 5HT7. A decrease in the binding of the compounds to the M1-M3 receptors, relative to the binding of the compound to the 5HT2a receptor, is an indication of the greater specificity of the compound for the 5HT2a receptor over the muscarinic receptor. […] 5HT2a binding is determined as described for example in British Journal of Pharmacology (1995) 115, 622-628.

[6] = biological target: Alpha 1; test: Alpha 1 binding assay; settings: Table 7A; unit inferred
Procedure: as §1

SMILES | Ki [1] [nM] | LONGEST UNINTERRUPTED SLEEP BOUT 0.3 mg/kg ([2]; oral bolus at CT-18, 0.3 mg/kg) [min] | LONGEST UNINTERRUPTED SLEEP BOUT 1 mg/kg ([2]; oral bolus at CT-18, 1 mg/kg) [min] | LONGEST UNINTERRUPTED SLEEP BOUT 3 mg/kg ([2]; oral bolus at CT-18, 3 mg/kg) [min] | NREM CUMULATION 3 mg/kg ([2]; oral bolus at CT-18, 3 mg/kg) [min] | LONGEST UNINTERRUPTED SLEEP BOUT 10 mg/kg [2] [min] | NREM CUMULATION 10 mg/kg [2] [min] | Ki [3] | Ki [4] [nM] | Ki [5] [nM] | Ki [6] [nM] | LONGEST UNINTERRUPTED SLEEP BOUT 30 mg/kg ([2]; oral bolus at CT-18, 30 mg/kg) [min] | NREM CUMULATION 30 mg/kg ([2]; oral bolus at CT-18, 30 mg/kg) [min]
Cc1cc2c(s1)Nc1ccccc1N=C2N1CCN(CC(C)(C)C(=O)O)CC1 [Compound 46] | 2100 | 3.9 | 11.8 ± 2.7 | 10.8 ± 3.2 | 38 ± 4 | 15.5 ± 4.1 | 42 ± 5 | 1100 nM and 533 nM and 847 nM | 14.5 | 200 |  |  | 
CCc1cc2c(s1)Nc1ccccc1N=C2N1CCN(CC(C)(C)C(=O)O)CC1 [Compound 90] |  |  |  | 12.3 ± 4.0 |  |  | 48 ± 8 | 196 nM | 10.4 |  |  |  | 
Cc1cc2c(s1)Nc1ccccc1N=C2N1CCN(CC2(C(=O)O)CC2)CC1 [Compound 91] |  |  |  |  |  | 10.7 ± 3.2 | 26 ± 4 | 202 nM | 13.3 |  | 1960 |  | 
Cc1cc2c(s1)Nc1ccccc1N=C2N1CCN(CCC(=O)O)CC1 [Compound 92] |  |  |  |  |  | 3.1 ± 2.5 | 10 ± 4 | 2480 nM | 60.7 |  | 2060 | 5.7 ± 1.8 | 27 ± 4
CC(C)c1cc2c(s1)Nc1ccccc1N=C2N1CCN(CC(C)(C)C(=O)O)CC1 [Compound 94] |  |  |  |  |  | 19.9 ± 3.7 | 47 ± 6 | 107 nM | 8.2 |  |  |  | 
